Patent publication US6313171A, “Method for preventing or treating elevated blood lipid level-related diseases by administering cinnamic acid derivatives” (Korea Research Institute of Bioscience & Biotechnology, priority 1998, dated 2001)

Columns and labels:
[1] = system: liver; experiment: Prevention of hepatic diseases: microscopic fatty liver grading in rabbits; assay type: in vivo, rabbit (New Zealand White); conditions: for microscopic features of the liver: FIGS. 2A-2E, control: many cells containing excessive fat around the central vein; for fatty liver grade (1+ to 4+): grades 1+(0-25%), 2+(26-50%), 3+(51-75), 4+(76-100%), rabbits, 8 weeks, Control 3.2 ± 0.3
Method: 30 three-month-old male New Zealand White rabbits (Yeonam Horticulture and Animal Husbandry College, Korea), each weighing about 2.5 to 2.6 kg, were raised under condition of temperature 20±2° C., relative humidity 55±5%, and photoperiod 12L/12D. The rabbits were divided into 5 groups and 5 groups of rabbits were fed with 5 different diets, i.e., RC4 diet (Oriental Yeast Co., Japan) containing 1% cholesterol (Control group); 1% cholesterol plus 1 mg/kg Lovastatin® (Merck, U.S.A.) (Lovastatin group); 1% cholesterol plus 0.1% 4-hydroxycinnamic acid (4-hydroxycinnamic acid group); 1% cholesterol plus 0.1% 3,4-dihydroxycinnamic acid (3,4-dihydroxycinnamic acid group); and 1% cholesterol plus 0.1% 3,4-dihydroxyhydrocinnamic acid (3,4-dihydroxyhydrocinnamic acid group), respectively. RC4 diet comprises 7.6% moisture, 22.8% crude protein, 2.8% crude fat, 8.8% crude ash, 14.4% crude cellulose and 43.6% soluble nitrogen-free substances. Cinnamic acid derivatives were purchased from Sigma Chemical Co. (St. Louis, Mo.).
The rabbits were fed for 8 weeks while being allowed free access to the diets and water.

[2] = target: T1, HMG-CoA reductase (Rattus norvegicus, UniProt P51639); experiment: HMG-CoA reductase activity assay, liver microsomes of the fed rats; assay type: biochemical; conditions: liver microsomes of rats fed 0.1% in 1% cholesterol diet; Control 0
T1 construct: the supernatant was ultracentrifuged at 100,000×g for 60 minutes to obtain microsomal precipitates; from tissue; host or cells: rat liver microsomes
T1 sequence (P51639 1-887): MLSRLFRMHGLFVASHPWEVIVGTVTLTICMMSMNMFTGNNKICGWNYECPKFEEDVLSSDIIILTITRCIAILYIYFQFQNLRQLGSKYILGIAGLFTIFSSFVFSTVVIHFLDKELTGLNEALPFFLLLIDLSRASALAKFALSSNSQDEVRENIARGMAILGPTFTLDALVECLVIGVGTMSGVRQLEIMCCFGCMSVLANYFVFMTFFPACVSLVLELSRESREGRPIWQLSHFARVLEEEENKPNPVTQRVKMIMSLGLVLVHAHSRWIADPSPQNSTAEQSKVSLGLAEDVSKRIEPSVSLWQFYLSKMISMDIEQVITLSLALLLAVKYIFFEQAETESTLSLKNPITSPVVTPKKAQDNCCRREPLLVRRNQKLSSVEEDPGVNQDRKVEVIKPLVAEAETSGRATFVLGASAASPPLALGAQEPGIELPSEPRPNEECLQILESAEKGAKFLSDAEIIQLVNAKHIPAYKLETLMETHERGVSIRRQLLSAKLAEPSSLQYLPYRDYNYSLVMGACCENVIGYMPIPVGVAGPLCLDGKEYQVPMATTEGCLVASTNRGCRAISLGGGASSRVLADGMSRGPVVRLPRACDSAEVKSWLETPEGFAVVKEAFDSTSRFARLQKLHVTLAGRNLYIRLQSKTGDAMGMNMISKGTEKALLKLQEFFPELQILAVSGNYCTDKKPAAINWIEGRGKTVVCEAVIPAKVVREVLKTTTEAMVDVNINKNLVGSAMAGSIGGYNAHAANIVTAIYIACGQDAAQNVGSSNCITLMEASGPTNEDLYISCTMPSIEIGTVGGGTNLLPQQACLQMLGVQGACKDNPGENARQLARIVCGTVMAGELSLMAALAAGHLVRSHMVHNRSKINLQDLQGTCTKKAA
Method: In order to determine the activity of HMG-CoA reductase, Hulcher's method was employed after some modification (see J. Lipid Res., 14, 625-641(1973)). In this method, the concentration of the coenzyme-A (CoA-SH), which is produced when HMG-CoA is reduced to a mevalonate salt by the action of HMG-CoA reductase, is determined by spectroscopy and the activity of HMG-CoA reductase is calculated therefrom.
3 g of liver tissue taken from each group of rats of Example 2 was washed successively with 100 ml of a cold saline (0.15 M NaCl) and 100 ml of a cold buffer solution A (0.1 M triethanolamine, HCl/0.2 M EDTA/2 mM dithiothreitol (DTT)). The cold buffer solution A was added to the liver tissue in an amount of 2 ml per 1 g of the liver tissue and the mixture was homogenized with a homogenizer. The homogenate was centrifuged at 15,000×g for 15 minutes, and then, the supernatant was ultracentrifuged at 100,000×g for 60 minutes to obtain microsomal precipitates. The precipitates thus obtained was washed with a cold buffer solution A and kept in a 1.5 ml tube at -70° C.
The reaction substrates used in HMG-CoA reductase activity assay were as follows: i) buffer solution B: 0.1 M triethanolamine, HCl/0.02 M EDTA (pH 7.4), ii) HMG-CoA solution: 150 μmoles/culture medium, and iii) NADPH solution: 2 μmoles/culture medium.
The suspension (microsome) was mixed with the reaction substrate and the mixture was placed in a centrifugation tube and reacted at 37° C. for 30 minutes. […]
Then, the reactant was mixed with 20 μl of DTNB buffer solution (3 mM DTNB/0.1 M triethanolamine/0.2 M EDTA, pH 7.4) and the absorbance of the mixture was determined at 412 nm to calculate the amount of CoA-SH (activity of HMG-CoA reductase).
The extent of inhibition of HMG-CoA reductase activity by cinnamic acid derivatives was calculated based on the above result.

[3] = Acute oral toxicity in ICR mice; assay type: in vivo, mouse
Method: 12 seven-week-old, specific pathogen-free ICR […] mice, six female mice each weighing about 25 to 29 g and six male mice each weighing about 34 to 38 g, were kept under an environment of 22±1° C., 55±5% relative humidity and 12L/12D photoperiod. Fodder (Cheiljedang Co., mouse and rat fodder) and water were sterilized and fed to the mice.
4-hydroxycinnamic acid purchased from Aldrich-Sigma Chemical Co. (St. Louis, Mo., U.S.A) was dissolved in 0.5% Tween 80 to a concentration of 100 mg/ml, and the solution was orally administered to the mice in an amount of 0.2 ml per 20 g of mouse body weight. […] Further, on the 10th day, the mice were sacrificed and the internal organs were visually examined.

[4] = system: ACAT; experiment: ACAT assay, liver microsomes of the fed rabbits; assay type: biochemical, rabbit; conditions: rabbits fed 0.1% in 1% cholesterol diet; Control 0

SMILES: O=C(O)/C=C/c1ccc(O)cc1 [4-Hydroxycinnamic acid, 4-hydroxycinnamic acid]
- microscopic features of the liver [1]: almost all liver cells are of a normal shape
- fatty liver grade (1+ to 4+) [1]: 2.7 ± 0.3
- Inhibition of HMG-CoA reductase activity [2]: 31%
- autopsy, internal organs ([3]; oral 1,000 mg/kg, 10th day): had not developed any pathological abnormality
- weight changes ([3]; oral 1,000 mg/kg, 10 day test period): no weight loss was observed
- survival ([3]; oral 1,000 mg/kg, day 10): All the mice were alive
- toxicity ([3]; single oral dose 1,000 mg/kg, mice, 10 days): showed no toxicity
- Inhibition on ACAT activity [4]: 9%

SMILES: O=C(O)/C=C/c1ccc(O)c(O)c1 [3,4-dihydroxycinnamic acid]
- microscopic features of the liver [1]: almost all liver cells are of a normal shape
- fatty liver grade (1+ to 4+) [1]: 2.6 ± 0.3
- Inhibition of HMG-CoA reductase activity [2]: 44%
- Inhibition on ACAT activity [4]: 33%

SMILES: O=C(O)CCc1ccc(O)c(O)c1 [3,4-dihydroxyhydrocinnamic acid]
- microscopic features of the liver [1]: almost all liver cells are of a normal shape
- fatty liver grade (1+ to 4+) [1]: 2.6 ± 0.3
- Inhibition of HMG-CoA reductase activity [2]: 70%
- Inhibition on ACAT activity [4]: 37%
